Measurements published in patent publication US20260315467A1, “PHARMACEUTICAL COMBINATION OF FAK INHIBITOR AND EGFR-TKI, AND USE” (INXMED (NANJING) CO., LTD., priority 2022, published 2026).

Key:
lung cancer cells HCC827 = assay: Apoptosis of HCC827 cells after FAK silencing combined with AZD9291 (Annexin V, flow cytometer); type: cell-based; conditions: FAK siRNA 50 nM, then 0.3 nM AZD9291, 48 hours
Procedure: In an in vitro assay, siRNA technology was used to reduce the expression level of FAK, which was combined with AZD9291 for 48 hours; a flow cytometer was used to detect the apoptosis in control and FAK-silenced cells.
(§1) Assay antibodies: Recombinant Alexa Fluor® 647 Anti-Calreticulin antibody (Abcam, ab196159), Annexin V apoptosis detection kit (Invitrogen, A35110).
HCC827 cells were transfected with control siRNA or FAK siRNA at a final concentration of 50 nM, respectively. After 24 hours of transfection, 0.3 nM AZD9291 was added and the cells were treated for 48 hours. The cells were stained using the Annexin V kit and detected using a flow cytometer. The values of early and late apoptosis of the cells were compared with those of the DMSO control group, and Graphpad 8.0 was used for graphing.

lung cancer KPL cells = assay: White light microscope observation of lung cancer KPL cells after 48 h drug incubation (Examples 1-3); type: cell-based
Calreticulin = Calreticulin release and exposure in HCC827 cells after FAK silencing combined with AZD9291; type: cell-based; conditions: FAK siRNA 50 nM, then 0.3 nM AZD9291, 48 hours
Procedure: In an in vitro assay, siRNA technology was used to reduce the expression level of FAK, which was combined with AZD9291 for 48 hours; a flow cytometer was used to detect the expression of Calreticulin, the main target of ICD.
as §1
HCC827 cells were transfected with control siRNA or FAK siRNA at a final concentration of 50 nM, respectively. After 24 hours of transfection, 0.3 nM AZD9291 was added and the cells were treated for 48 hours. The Calreticulin antibody was used for fluorescent staining, and the staining results were analyzed by a flow cytometer.

colon cancer MC38 cell = assay: In vivo anti-tumor efficacy in subcutaneous allograft tumor model of colon cancer MC38 cell in C57BL/6 mice; set-up: species or system mouse; conditions: PD-L1 antibody 5 mg/kg i.p. BIW
Text: Mice: Female C57BL/6 mice aged 6-8 weeks were purchased from Shanghai Slack Laboratory Animal Co., Ltd. After the animals arrived, they were raised for acclimatization in the assay environment before the assay. The animals were raised in cages (5 animals per cage) with IVC (independent air supply system) in a SPF animal room. All the cages, padding and drinking water were sterilized before use. All the experimenters wore protective clothing and latex gloves when operating in the animal room. The animal information card for each cage indicated the number, sex, strain, receiving date, administration plan, assay number, group and assay start date of the animals in the cage. […]
Colorectal cancer cells MC38 (from Nanjing Kebai Biotechnology Co., Ltd., article number: CBP60825) were maintained and passaged by InxMed (Nanjing) Co., Ltd. The cells were cultured in monolayer in vitro, and the culture conditions were DMEM medium with 10% fetal bovine serum, 37° C. and 5% CO2 incubator. […] When the cells were in exponential growth period and the saturation reached 80% to 90%, the cells were collected, counted and inoculated. […]
The diameter of a tumor was measured with a vernier caliper 3 times a week. […]
Referring to the tumor volume on the first day after grouping, the tumor growth inhibition rate TGI (%) was calculated according to the following formula. […]

[1] = Example 1, IN10018 10 μM, AZD9291 10 μM, or both
[2] = Example 3, IN10018 10 μM, Alflutinib 4.7 μM, or both
[3] = Example 2, IN10018 10 μM, Almonertinib 4.7 μM, or both

Row | SMILES | late apoptosis in the FAK silencing group compared with the control group (lung cancer cells HCC827) | condition of cells under microscope (lung cancer KPL cells; [1]) | release and exposure of Calreticulin after FAK silencing (Calreticulin) | TGI (colon cancer MC38 cell; day 14, AZD9291 20, IN10018 25 mg/kg p.o. QD) [%] | Tumor volume on day 14 (colon cancer MC38 cell; day 14 after group administration, AZD9291 20, IN10018 25 mg/kg p.o. QD, mean ± standard error of the mean) [mm^3] | condition of cells under microscope (lung cancer KPL cells; [2]) | condition of cells under microscope (lung cancer KPL cells; [3])
1 | C=CC(=O)Nc1cc(Nc2nccc(-c3cn(C)c4ccccc34)n2)c(OC)cc1N(C)CCN(C)C [AZD9291, Osimertinib] | significantly enhanced | poor condition | significantly enhanced | 24.4 | 1518.1±728.8 | – | –
2 | C=CC(=O)Nc1cc(Nc2nccc(-c3cn(C)c4ccccc34)n2)c(OCC(F)(F)F)nc1N(C)CCN(C)C [Alflutinib] | – | – | – | – | – | poor condition | –
3 | C=CC(=O)Nc1cc(Nc2nccc(-c3cn(C4CC4)c4ccccc34)n2)c(OC)cc1N(C)CCN(C)C [Almonertinib] | – | – | – | – | – | – | poor condition
4 | COc1cc(C(=O)NC2CCN(C)CC2)c(F)cc1Nc1ncc(C(F)(F)F)c(Oc2cccc3c2C(=O)N(C)C3)n1 [IN10018] | – | better condition | – | – | – | better condition | better condition
